Test systems include TK-10; CAKI-1; HL-60; HCT-116; NCI-H23; Malme-3M; OVCAR-8; SF-539; SNB-75; OVCAR-4; KM12; K562; SNB-19; A549; A498; NCI-H460.
Holding throughout (test): growth of human tumour cells (NCI), 48 h

We go through 13 compounds from ChEMBL document CHEMBL1201862, “PubChem BioAssay data set” (2004).

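Five compound concentrations were applied to cells in 96-well plates for 48 hours; endpoints were derived by simple linear interpolation of the resulting dose-response curve. Here, GI50 denotes the concentration required for 50% inhibition of growth.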 The source made the active and inactive calls. Cut-off read from the data, not from the text of the source: active = GI50 up to about 1.1 µM and inactive = higher.

With `CN(C)CCNC(=O)c1cccc2nc3cc(Cl)ccc3nc12`, the GI50 in the assay on TK-10 is 2.7 µM (inactive); in the assay on CAKI-1, 4.59 µM (inactive); in the assay on HL-60, 3.32 µM (inactive); in the assay on HCT-116, 0.764 µM (active); with NCI-H23 it was 2 µM (inactive); with Malme-3M it was 1.85 µM (inactive). For the same compound, the GI50 was 1.99 µM (inactive) in the assay with OVCAR-8; 3.12 µM (inactive) in the assay with SF-539; 2.52 µM (inactive) in the assay on SNB-75; 2.42 µM (inactive) in the assay on OVCAR-4; 2.51 µM (inactive) in the assay on KM12; 1.18 µM (inactive) with K562. Also, the figures for the GI50 in the assay with SNB-19, in the assay on A549 and with A498 were 3.4 µM (inactive), 2.56 µM (inactive) and 1.65 µM (inactive), respectively.
For `[N-]=[N+]=NC(CBr)c1cn([C@H]2C[C@H](O)[C@@H](CO)O2)c(=O)[nH]c1=O` (stereo partly specified), the GI50 with TK-10, in the assay with CAKI-1, in the assay with HL-60, with HCT-116, in the assay with NCI-H23 and in the assay with Malme-3M was > 100 µM (inactive) in each case. Also, the GI50 with NCI-H460, with OVCAR-8, in the assay on SF-539, in the assay on SNB-75, in the assay with KM12 and in the assay with K562 was > 100 µM (inactive) in each case. The GI50 in the assay with SNB-19 and in the assay on A549 was > 100 µM (inactive) each time.
With `c1ccc2cc3[s+]snc3cc2c1`, the GI50 in the assay on TK-10, with CAKI-1, in the assay on HL-60, in the assay on HCT-116, with NCI-H23 and in the assay with Malme-3M was > 100 µM (inactive) in each case. The GI50 with NCI-H460, with OVCAR-8, with SF-539, with SNB-75, in the assay with OVCAR-4 and with KM12 was > 100 µM (inactive) throughout. Also, the GI50 in the assay with K562, with SNB-19, with A549 and with A498 was > 100 µM (inactive) in each case.
In the case of `O=C(Nc1ccccc1C(=O)O)C(=O)C(C(=O)c1ccccc1-c1ccccc1)C1OC(=O)c2ccccc21` (stereo unspecified), the GI50 with TK-10 is 13.9 µM (inactive); in the assay on CAKI-1, 36 µM (inactive); in the assay on HL-60 it was 23.9 µM (inactive); in the assay on HCT-116, 22 µM (inactive); with NCI-H23 it was 22.8 µM (inactive); in the assay on Malme-3M it was 12.2 µM (inactive). The GI50 was 17.8 µM (inactive) in the assay with NCI-H460; 15.7 µM (inactive) in the assay with OVCAR-8; 16.6 µM (inactive) in the assay with SF-539; 25.1 µM (inactive) in the assay on SNB-75; 35 µM (inactive) in the assay on OVCAR-4; 18 µM (inactive) in the assay on KM12. In addition, the GI50 was 36.1 µM (inactive) in the assay with K562, 16.1 µM (inactive) in the assay on SNB-19, 31.4 µM (inactive) with A549 and 19.3 µM (inactive) in the assay with A498.
For the compound `Nc1ncnc2c1ncn2C1OC(CSCC(F)(F)F)C(O)C1O` (stereo unspecified), the GI50 with TK-10, with CAKI-1, with HL-60, in the assay on HCT-116, in the assay on NCI-H23 and in the assay on Malme-3M was > 100 µM (inactive) in each case. Moreover, the GI50 in the assay with NCI-H460, with OVCAR-8, in the assay with SF-539, in the assay on SNB-75, in the assay with OVCAR-4 and in the assay with KM12 was > 100 µM (inactive) each time. The GI50 in the assay on K562, in the assay with SNB-19 and with A549 was > 100 µM (inactive) each time.
For the compound `CC(N)Cc1ccc(C(=O)Cl)cc1` (stereo unspecified), the GI50 in the assay with TK-10, with CAKI-1, with HCT-116, with NCI-H23, with Malme-3M and in the assay on NCI-H460 was > 100 µM (inactive) each time. For the same compound, the GI50 in the assay with OVCAR-8, in the assay with SF-539, with SNB-75, with OVCAR-4, in the assay on KM12 and with K562 was > 100 µM (inactive) in each case. Also, the GI50 in the assay with A549 and in the assay on A498 was > 100 µM (inactive) throughout.
Consider `OCCc1cnco1`, for which the GI50 in the assay on TK-10, in the assay on HL-60, in the assay on HCT-116, with NCI-H23, with NCI-H460 and with OVCAR-8 was > 100 µM (inactive) each time. Moreover, the GI50 in the assay with SF-539, in the assay on SNB-75, in the assay on OVCAR-4, in the assay on KM12, with K562 and in the assay with SNB-19 was > 100 µM (inactive) each time. Besides, in the assay with A549, the GI50 was > 100 µM (inactive).
On to `COC1(OC)C2(Cl)C(Cl)=C(Cl)C1(Cl)C1C=CC=CC12` (stereo unspecified), for which the GI50 is > 100 µM (inactive) in the assay with TK-10; 45.7 µM (inactive) with CAKI-1; 55.8 µM (inactive) in the assay with HL-60; 43.5 µM (inactive) with HCT-116; > 100 µM (inactive) with NCI-H23; 31.6 µM (inactive) in the assay on Malme-3M. The GI50 in the assay on NCI-H460 is > 100 µM (inactive); in the assay on OVCAR-8 it was > 100 µM (inactive); in the assay with SF-539, > 100 µM (inactive); in the assay with SNB-75 it was 66.5 µM (inactive); in the assay on OVCAR-4, > 100 µM (inactive); with KM12, > 100 µM (inactive). Further, the figures for the GI50 with K562, in the assay with SNB-19 and in the assay on A549 were 51.6 µM (inactive), > 100 µM (inactive) and 69 µM (inactive), respectively.
Regarding `O=C(O)CNc1c2ccccc2[n+]([O-])c2ccccc12`, the GI50 is > 100 µM (inactive) in the assay with TK-10; > 100 µM (inactive) with CAKI-1; 18.7 µM (inactive) in the assay on HL-60; 44.6 µM (inactive) with HCT-116; 60.7 µM (inactive) in the assay on NCI-H23; 61.4 µM (inactive) in the assay on Malme-3M. The GI50 with NCI-H460 is > 100 µM (inactive); with OVCAR-8, 78.7 µM (inactive); in the assay on SNB-75, 76.2 µM (inactive); in the assay with OVCAR-4 it was 94.2 µM (inactive); with KM12, > 100 µM (inactive); in the assay on K562, 13.9 µM (inactive). Further, the GI50 with SNB-19, with A549 and in the assay on A498 was > 100 µM (inactive) in each case.
`CN1C(=O)C2C3C=C4c5ccccc5N(c5ccccc5)C4(C2C1=O)[C@H]1C(=O)N(C)C(=O)[C@@H]31` (stereo partly specified): the GI50 with TK-10, with HL-60, in the assay with HCT-116, in the assay with NCI-H23, with Malme-3M and in the assay on NCI-H460 was > 100 µM (inactive) each time. For the same compound, the GI50 with OVCAR-8, in the assay with SNB-75, with OVCAR-4, in the assay on KM12, in the assay with K562 and with SNB-19 was > 100 µM (inactive) throughout. For the same compound, the GI50 in the assay with A549 and with A498 was > 100 µM (inactive) throughout.
As to `CCOC(=O)N1C(c2ccccc2)C=CC(c2ccccc2)N1C(=O)OCC` (stereo unspecified), the GI50 in the assay with TK-10, in the assay on CAKI-1, in the assay on HCT-116, in the assay on NCI-H23, in the assay with Malme-3M and in the assay on NCI-H460 was > 100 µM (inactive) in each case. The GI50 was > 100 µM (inactive) in the assay on OVCAR-8; > 100 µM (inactive) in the assay on SF-539; 42.9 µM (inactive) with SNB-75; > 100 µM (inactive) in the assay with OVCAR-4; > 100 µM (inactive) in the assay on KM12; > 100 µM (inactive) in the assay on K562. Also, the GI50 in the assay on SNB-19, with A549 and in the assay on A498 was > 100 µM (inactive) each time.
Consider `N#CC(C(=O)CCCC(=O)Nc1ccc(Cl)cc1Cl)c1ccc(Cl)cc1` (stereo unspecified), for which the GI50 in the assay with TK-10, in the assay on CAKI-1, in the assay on HL-60, in the assay with HCT-116, in the assay on NCI-H23 and in the assay with Malme-3M was > 100 µM (inactive) in each case. The GI50 in the assay with NCI-H460, with OVCAR-8, with SF-539, with SNB-75, in the assay with OVCAR-4 and with KM12 was > 100 µM (inactive) throughout. In addition, the GI50 in the assay with K562, in the assay on SNB-19 and with A549 was > 100 µM (inactive) each time.
Turning to `Nc1ccn(CCOC(=O)c2ccccc2)c(=O)n1`, the GI50 in the assay on TK-10, with CAKI-1, in the assay with HL-60, in the assay on HCT-116, in the assay on Malme-3M and in the assay on NCI-H460 was > 100 µM (inactive) in each case. The GI50 with OVCAR-8, in the assay with SF-539, with SNB-75, in the assay with OVCAR-4, with KM12 and with K562 was > 100 µM (inactive) throughout. For the same compound, the GI50 in the assay on A549 and with A498 was > 100 µM (inactive) throughout.
